The source of these data is publication PMC9961069 (Metabolites, 2023).

The test system of test [1] is MDA-MB-468 cells. In words: Resazurin viability assay with or without folinic acid, MDA-MB-468. Format: cell-based, Human. Conditions: 72 h; for Relative Viability (%) – Inhibitor + FA Treatment: MDA-MB-468, 10 μM + 300 μg/mL folinic acid; for Rescue of viability impairment by folinic acid: MDA-MB-468, 10 μM ± 300 μg/mL FA; for Relative Viability (%) – Inhibitor Alone: MDA-MB-468, 10 μM, relative to DMSO. Here is the method: (§1) The incorporation and metabolism of resazurin to resorufin was used to monitor cell viability. MDA-MB-468, MCF7, and MDA-MB-231 cells were grown in 96-well plates with a total of 5000 cells per well in a total volume of 180 μL for 24 h, as described above. After 24 h of growth, cells were treated with increasing concentrations of compounds (0.0457–100 μM) for 72 h. A vehicle control was also performed. […] The volume of treatment added to each well was 20 μL. For folinic acid rescue experiments, 5000 cells were treated with 10 μM compound with or without 300 μg/mL folinic acid (Supelco). After 72 h of treatment, resazurin was added to a final concentration of 44 μM, and cells were incubated for an additional 4 h at 37 °C. The fluorescence of resorufin was monitored on a Synergy MX microplate reader (BioTek) using an excitation wavelength of 540 nm and an emission wavelength of 600 nm. Percent viability relative to the DMSO control was determined. Each treatment was performed in triplicate, and each individual experiment was repeated three times (n = 3).

Test [2] relates to MCF-7 cells. In words: Resazurin viability assay with or without folinic acid, MCF-7. Format: cell-based, Human. The conditions noted are these: 72 h; for Relative Viability (%) – Inhibitor + FA Treatment: MCF-7, 10 μM + 300 μg/mL folinic acid; for Rescue of viability impairment by folinic acid: MCF-7, 10 μM ± 300 μg/mL FA; for Relative Viability (%) – Inhibitor Alone: MCF-7, 10 μM, relative to DMSO. The method, then: as §1

Test [3] has as its target T1, purified human DHFR (Homo sapiens, UniProt P00374).
T1 construct: made in house; host or cells: E. coli BL21 (DE3) T1R pRARE2, pNIC-Bsa4 plasmid
T1 sequence (P00374 1-187): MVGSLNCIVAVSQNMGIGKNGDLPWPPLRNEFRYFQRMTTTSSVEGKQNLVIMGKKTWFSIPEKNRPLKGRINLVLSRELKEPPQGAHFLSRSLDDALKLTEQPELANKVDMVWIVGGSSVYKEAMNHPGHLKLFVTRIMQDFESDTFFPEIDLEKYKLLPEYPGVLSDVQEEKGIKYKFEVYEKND
The test is described as follows: DHFR enzymatic inhibition assay (NADPH absorbance at 340 nm). Format: biochemical. The conditions noted are these: 200 nM DHFR, 137.5 μM DHF, 125 μM NADPH; n = 2; read-out: IC50. The method, then:
Working stocks of each inhibitor were created so that the final concentration of DMSO in each reaction was 2% in a final reaction volume of 100 μL. […] Reactions were prepared on ice in 384-well plates. […] Consumption of NADPH by measuring absorbance at 340 nm was used to monitor the progress of the reaction. Readings were taken every 5 min for 1 h at 37 °C using a Synergy MX microplate reader (BioTek).
Percent inhibition relative to the no-inhibitor control was determined using Equation (1). (1) % Inhibition=A340Inhibitor−A340DMSO Control/A340No DHFR−A340DMSO Control×100
Percent inhibition data were then fit to the four-parameter logistic model (Equation (2)) in GraphPad Prism 9.4.1 to determine half-maximal inhibitory concentrations (IC50):(2) y=Bottom+Top−Bottom/1+IC50/x^Hill slope where y represents the percent inhibition, x represents the concentration of inhibitor (μM), the bottom and top represent the bottom and top plateaus, and the Hill slope represents the slope factor. Each experiment contained duplicates of each sample, and each experiment was performed 2 times (n = 2). An ordinary one-way ANOVA was used to test for statistical significance between treatments.

Test [4] deals with MDA-MB-231 cells. In words: Resazurin viability assay with or without folinic acid, MDA-MB-231. Format: cell-based, Human. The conditions noted are these: 72 h; for Relative Viability (%) – Inhibitor + FA Treatment: MDA-MB-231, 10 μM + 300 μg/mL folinic acid; for Rescue of viability impairment by folinic acid: MDA-MB-231, 10 μM ± 300 μg/mL FA; for Relative Viability (%) – Inhibitor Alone: MDA-MB-231, 10 μM, relative to DMSO. Here is the method: as §1

Test [5] deals with T2, DHFR in MDA-MB-468 cells.
T2 construct: reactions containing 55 μg MDA-MB-468 lysate; endogenous in cells; host or cells: MDA-MB-468
The test is described as follows: DHFR accumulation assay (Western blot). Format: cell-based, Human. The conditions noted are these: MDA-MB-468, 24 h, range 0.012–1 nM. Here is the method:
Trypsinized MDA-MB-468 cells were seeded into 6-well plates at a density of 300,000 cells per 2 mL of media and allowed to adhere for 24 h. […] The final concentration of DMSO in each well was 1%. A DMSO-only control was also performed on each individual plate. Cells were then trypsinized, harvested by centrifugation at 200× g for 5 min at 4 °C, and washed once with PBS/PIC. Cell pellets were flash frozen using an ethanol/dry ice bath and stored at −80 °C prior to lysis. Each cell pellet was lysed as described above using 50 μL PBS/PIC per cell pellet. Samples were then analyzed by Western blot, as described below, using 30 μg lysate per lane. Band intensities of DHFR were normalized to the loading control SOD1 via densitometry using ImageJ (Fiji), and each DHFR band was normalized to the DMSO control. Fold-change in DHFR band intensity was plotted against inhibitor concentration (μM). Each experiment was performed two separate times as individual biological replicates (n = 2).
(§2) Proteins were electrophoretically separated on a 10% gel, and proteins were transferred to a methanol-activated PVDF membrane using the Trans-Blot Turbo transfer system (Bio-Rad) for 7 min at 1.3 A and 25 V in Trans-Blot Turbo transfer buffer (Bio-Rad). Membranes were blocked with 5% skim milk w/v in TBS-T (20 mM Tris, 150 mM NaCl, 0.05% Tween-20) for 1 h at room temperature. […] The horseradish peroxidase (HRP)-linked anti-mouse IgG secondary antibody (NA931, Cytiva; 1:3000) was added for 1 h at room temperature in 5% skim milk w/v in TBS-T. Signal was detected by adding Immobilon Forte Western HRP Substrate (Millipore), and chemiluminescence was captured on a Sapphire Biomolecular Imager (Azure Biosystems). Band densities were determined using ImageJ (Fiji). The band intensity of DHFR was normalized to the thermostable loading control SOD1 [22].

Test [6] has as its system MDA-MB468, MDA-MB-231, and MCF-7 breast cancer cell lines. The test is described as follows: Dose-response viability in breast cancer cell lines (statements not split by line). Format: cell-based, Human. The conditions noted are these: 0–100 μM, 72 h. Here is the method:
as §1

The test system of test [7] is leukemia. More on the design: method as in PMID 5479856, PMID 5479852, PMID 5241406. The conditions noted are these: early studies in the 1970s; cited from earlier work.
Test [8] deals with T3, DHFR in MDA-MB-468 lysates.
T3 construct: reactions containing 55 μg MDA-MB-468 lysate; endogenous in cells; host or cells: MDA-MB-468
The test is described as follows: Lysate cellular thermal shift assay (CETSA) for DHFR. Format: binding, Human. Conditions: 10 μM, MDA-MB-468 lysate, 45 °C for 3 min, DMSO at 37 °C = 100%. The method, then: Trypsinized MDA-MB-468 cells were harvested by centrifugation at 200× g for 5 min and washed with PBS supplemented with EDTA-free PIC (Roche) and flash frozen for storage at −80 °C. Cells were lysed by resuspension in 60 μL PBS/PIC per 1 × 10^6 cells. Cells were lysed by three freeze-thaw cycles, where cells were frozen in an ethanol/dry ice bath for 3 min, immediately followed by incubation in a 37 °C water bath for 3 min. The insoluble fraction was removed by centrifugation at 20,000× g for 20 min at 4 °C. The supernatant containing the soluble lysate was removed and saved for subsequent steps.
After incubation, each reaction was transferred to a 1.5 mL tube and centrifuged at 20,000× g for 20 min at 4 °C to remove the insoluble proteins. After centrifugation, 18 μL of supernatant was carefully removed from each reaction, without disturbing any pelleted aggregates, and added to 4.5 μL of 5× SDS-PAGE loading buffer. 11 μL of each reaction was loaded onto a gel in duplicate, and proteins were detected by Western blot (as described below). Resulting band densities were fit to the Boltzmann equation to determine the melting temperature (Tm):(3) y=Bottom+Top−Bottom/1+e^Tm−x/Slope
To rescue the thermal degradation of DHFR by inhibitors, samples containing 10 μM inhibitor, 55 μg lysate, and 1% DMSO in a total volume of 28 μL in DHFR buffer were prepared in PCR tubes and incubated at room temperature for 20 min. Two DMSO-only controls were also prepared. Reactions containing inhibitors were then incubated at 45 °C for 3 min. One DMSO-only control was also heated at 45 °C for 3 min, and the other control was heated at 37 °C for 3 min. The soluble protein fraction was separated from the insoluble proteins by centrifugation, and proteins were separated by SDS-PAGE, as described above, and analyzed via Western blot, as described below. Each experiment was repeated 3 times.
as §2

For the molecule `CC1(C)N=C(N)N=C(N)N1c1ccc(CCCCc2ccccc2)c(Cl)c1` [compound 128184], in test [1], the “Relative Viability (%) – Inhibitor + FA Treatment” value is given as 16.09 ± 10.4%, the “Rescue of viability impairment by folinic acid” value (“Rescue of viability impairment” for short) is “failed to rescue” and the “Relative Viability (%) – Inhibitor Alone” value is reported as 12.35 ± 8.6%. In test [2], the “Relative Viability (%) – Inhibitor + FA Treatment” value is 48.65 ± 6.9%, the “Rescue of viability impairment” value is “failed to rescue” and the “Relative Viability (%) – Inhibitor Alone” value was 35.94 ± 11.4%. Besides, the IC50 in test [3] is 720 ± 240 nM. Besides, in test [4], the “Relative Viability (%) – Inhibitor + FA Treatment” value turned out to be 53.14 ± 12.7%, the “Rescue of viability impairment” value was “failed to rescue” and the “Relative Viability (%) – Inhibitor Alone” value is on record as 42.94 ± 9.7%. Also, the “Concentration giving notable accumulation of DHFR” value in test [5] stood at 0.33 nM. Also, the “Phenotypic response in viability dose-response” value (“Phenotypic response” for short) in test [6] is “induce growth arrest at low concentrations and induce cell death at higher concentrations”. The “Anti-leukemic activity in vivo” value in test [7] is reported as “promising anti-leukemic activity in vivo”.
Regarding `CC1(C)N=C(N)N=C(N)N1c1ccc(CCCCc2ccccc2)cc1` [compound 127153], the “Relative Viability (%) – Inhibitor + FA Treatment” value in test [1] was determined as 23.92 ± 7.7%; in test [2] it was 56.75 ± 7.9%; in test [4] it was 55.71 ± 12.7%. For the same molecule, the “Rescue of viability impairment” value in test [1], in test [2] and in test [4] was “failed to rescue” each time. For the same molecule, the “Relative Viability (%) – Inhibitor Alone” value worked out at 17.90 ± 7.8% in test [1], 43.03 ± 13.9% in test [2] and 45.99 ± 10.6% in test [4]. In test [3], the IC50 turned out to be 930 ± 240 nM. For the same molecule, in test [5], the “Concentration giving notable accumulation of DHFR” value was found to be 0.33 nM. For the same molecule, in test [6], the “Phenotypic response” value is “induce growth arrest at low concentrations and induce cell death at higher concentrations”. Further, the “Normalized Band Density (%) of soluble DHFR” value in test [8] is on record as “greater than 100%”; in test [8] (listed as NSC127153) it was 100.16 ± 36.4%. Moreover, the “Anti-leukemic activity in vivo” value in test [7] is “promising anti-leukemic activity in vivo”.
Consider `CC1(C)N=C(N)N=C(N)N1c1ccc(CCCCc2ccc(S(=O)(=O)F)cc2)cc1` [compound 123032], for which the “Relative Viability (%) – Inhibitor + FA Treatment” value came out at 66.59 ± 2.1% in test [1], 104.16 ± 6.3% in test [2] and 103.45 ± 16.5% in test [4]. Also, the “Rescue of viability impairment” value in test [1] is on record as “rescued in all but MDA-MB-468 cells”; in test [4], “largest amplitude of rescue”. The “Relative Viability (%) – Inhibitor Alone” value in test [1] is on record as 71.41 ± 10.0%; in test [2], 81.94 ± 19.4%; in test [4], 57.55 ± 3.1%. In test [3], the IC50 worked out at 1170 ± 460 nM. For the same molecule, the “Phenotypic response” value in test [6] was “little effect at low concentrations and cytotoxicity at higher concentrations”. Further, the “Normalized Band Density (%) of soluble DHFR” value in test [8] is on record as “greater than 100%”; in test [8] (listed as NSC123032), 121.24 ± 45.6%. In addition, in test [7], the “Anti-leukemic activity in vivo” value is “promising anti-leukemic activity in vivo”.
